Experimental data as given in patent publication US6911316B1, “Medical uses of scuPA/suPAR complex” (Thrombotech Ltd., priority 1996, dated 2005).
Values joined by “and” are separate entries in the source; they are usually repeats but may differ in a detail not shown here. Equal values may be shown once.

Tests used:
human plasma clot = experiment: Fibrinolysis of clot formed by thrombin from human plasma (lytic zones / solubilized radioactivity); format: biochemical
Method: Fibrinogen containing plasminogen was reconstituted in phosphate buffered saline (PBS), pH 7.4 or in serum to a concentration of 3 mg/ml. Fibrin clots were prepared by the addition of 0.025 NIH units of human thrombin per […] fibrinogen solution. The mixture was decanted onto the lid of a culture dish and incubated for 60 min at room temperature. After clot formation, portions of 10 μl of PBS containing 1 μM scuPA, with or without an equimolar concentration of suPAR, were placed on several parts of the surface of the clot. The clot was incubated for 2 to 3 hr at 37° C., until the appearance of digestion areas on the surface. At that stage the clot was washed several times with PBS and incubated overnight with 0.2° trappan blue. On the following day, the clot was rinsed 4 is times with PBS and photographed The pictures were scanned with a Hoefer GS 300 scanning densitometer. The size of the lytic zones was calculated by the NIH image program. […]
Human fibrinogen (Sigma. St. Louis, Mo.) was radiolabeled with ^125I [Higazi, A A-R. & Abu-Much R. et al. J. Biol. Chem. 270:9472-9477 (1995)]. ^125I-labeled fibrinogen was added to a solution of PBS, pH 7.4, containing either 3 mg/ml fibrinogen and 1 μM glu-plasminogen or plasma. […] For determination of fibrinolysis, plasminogen activating agents (1 μM) or 1376 MAT cells, in a total volume of 10 μl each, were directly added to the center of the clot and after incubation for specific periods, the wells were washed and the radioactivity of the lavage solution was determined by means of a gamma counter. Fibrinolysis was also measured as previously described [Higazi, A A-R., et al. Biochem. J. 300:251-255 (1994)], by addition of 0.4 ml of serum or PBS, containing 25 nM of the plasminogen activator agent (scuPA, scuPA/suPAR complex or tcuPA). […] Fibrinolytic activity was determined by following the release from the ^125I-labeled fibrin clot of labeled soluble degradation products of fibrin and is illustrated in FIGS. 7 and 8.

[1] = system: radiolabeled plasma-derived clot; experiment: Lysis of radiolabeled plasma-derived clot covered with serum or PBS containing the plasminogen activator; format: biochemical, human
Method: (§1) Human fibrinogen (Sigma. St. Louis, Mo.) was radiolabeled with ^125I [Higazi, A A-R. & Abu-Much R. et al. J. Biol. Chem. 270:9472-9477 (1995)]. ^125I-labeled fibrinogen was added to a solution of PBS, pH 7.4, containing either 3 mg/ml fibrinogen and 1 μM glu-plasminogen or plasma. Clots were formed in wells of tissue culture plates with an inner diameter of 16 mm (Costar, Cambridge, Mass.). To initiate the clot formation, 10 μl of a solution containing 2 NIH units of thrombin (Sigma. St. Louis, Mo.) were added to 0.4 ml of fibrinogen solution or to plasma. For determination of fibrinolysis, plasminogen activating agents (1 μM) or 1376 MAT cells, in a total volume of 10 μl each, were directly added to the center of the clot and after incubation for specific periods, the wells were washed and the radioactivity of the lavage solution was determined by means of a gamma counter. Fibrinolysis was also measured as previously described [Higazi, A A-R., et al. Biochem. J. 300:251-255 (1994)], by addition of 0.4 ml of serum or PBS, containing 25 nM of the plasminogen activator agent (scuPA, scuPA/suPAR complex or tcuPA). The plates were incubated at 37° C. in an incubator for the required time (about 2 hours, see legends to the Figures). Aliquots of 25 μl were removed at the specific time point for counting of the solubilized label in a gamma counter. Fibrinolytic activity was determined by following the release from the ^125I-labeled fibrin clot of labeled soluble degradation products of fibrin and is illustrated in FIGS. 7 and 8.

[2] = system: bovine fibrinogen clot reconstituted in serum; experiment: Fibrinolysis of bovine fibrinogen clot reconstituted in serum; format: biochemical; details: FIG. 5
Method: (§2) Fibrinogen containing plasminogen was reconstituted in phosphate buffered saline (PBS), pH 7.4 or in serum to a concentration of 3 mg/ml. Fibrin clots were prepared by the addition of 0.025 NIH units of human thrombin per […] fibrinogen solution. The mixture was decanted onto the lid of a culture dish and incubated for 60 min at room temperature. After clot formation, portions of 10 μl of PBS containing 1 μM scuPA, with or without an equimolar concentration of suPAR, were placed on several parts of the surface of the clot. The clot was incubated for 2 to 3 hr at 37° C., until the appearance of digestion areas on the surface. At that stage the clot was washed several times with PBS and incubated overnight with 0.2° trappan blue. On the following day, the clot was rinsed 4 is times with PBS and photographed The pictures were scanned with a Hoefer GS 300 scanning densitometer. The size of the lytic zones was calculated by the NIH image program.
In an experiment designed to test the possibility that the different effects were related to the source of fibrinogen, the fibrinogen was removed from plasma by clotting with thrombin and removal of the clot by centrifugation to obtain serum. […] The possibility that the stimulatory activity was derived from the anticoagulants present in plasma was considered.

human IgG = experiment: Binding of 125I-suPAR to IgG, precipitation with protein G; details: for precipitation by protein G from native plasma: 50 nM radiolabeled protein, FIG. 11
Method: Plasma (5 ml) were incubated with 1 ml of IgG (bound to beads, as described) for 2 hr, at 4° C. The beads were precipitated by centrifugation and the plasma was decanted and used for precipitation of radiolabeled suPAR or for formation of clots after addition of thrombin, as described herein before.
(§3) Binding of ^125I-suPAR to IgG was determined by incubation of 50 nM radiolabeled suPAR, 0.1 ml plasma and 0.5 ml of IgG protein, for 2 hr at 4° C. Following incubation, the mixture was centrifugated. The precipitate was washed 4 is times with PBS and the radioactivity incorporated into protein G was determined. Non-specific binding was determined by using plasma that had been depleted of IgG or by measuring the precipitation of irrelevant protein. All experiments were repeated at least three times.

[3] = system: purified bovine fibrinogen clot; experiment: Fibrinolysis of purified fibrinogen clot, size of lytic zones; format: biochemical
Method: as §2

[4] = system: radiolabeled fibrinogen-derived clot containing 1 μM glu-plasminogen; experiment: Fibrinolytic activity of suPAR-Sepharose precipitates on fibrinogen-derived clot; format: biochemical, human; details: FIG. 10
Method: as §1, with “The plates were incubated at 37° C. in an incubator for the required time (about 2 hours, see legends to the Figures). Aliquots of 25 μl were removed at the specific time point for counting of the solubilized label in a gamma counter.” left out, “8. […]” for “8.”

[5] = system: clot prepared from IgG-depleted plasma; experiment: Lysis of clots derived from normal or IgG-depleted plasma; format: biochemical, human; details: versus clot from normal plasma, FIG. 13
Method: as §1, with “The plates were incubated at 37° C. in an incubator for the required time (about 2 hours, see legends to the Figures). Aliquots of 25 μl were removed at the specific time point for counting of the solubilized label in a gamma counter.” left out, “8. […]” for “8.”

[6] = system: radiolabeled fibrinogen-derived clot; experiment: Lysis of radiolabeled fibrinogen-derived clot covered with serum or PBS containing the plasminogen activator; format: biochemical, human
Method: as §1, with “The plates were incubated at 37° C. in an incubator for the required time (about 2 hours, see legends to the Figures). Aliquots of 25 μl were removed at the specific time point for counting of the solubilized label in a gamma counter.” left out

PAI-1 = PAI-1 (Homo sapiens, UniProt P05121); details: cited from earlier work
Sequence of PAI-1 (P05121 24-402, species assumed): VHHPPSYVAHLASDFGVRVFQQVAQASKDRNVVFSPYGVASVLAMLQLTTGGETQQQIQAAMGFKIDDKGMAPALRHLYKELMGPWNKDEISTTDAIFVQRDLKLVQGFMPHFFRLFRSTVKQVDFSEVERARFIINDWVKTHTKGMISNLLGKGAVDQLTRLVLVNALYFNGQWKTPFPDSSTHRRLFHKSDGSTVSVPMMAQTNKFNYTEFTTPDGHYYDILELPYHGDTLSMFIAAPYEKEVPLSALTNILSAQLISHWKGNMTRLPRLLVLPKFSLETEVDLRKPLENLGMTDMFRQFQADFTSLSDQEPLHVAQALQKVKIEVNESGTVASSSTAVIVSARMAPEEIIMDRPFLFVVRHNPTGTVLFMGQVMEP

plasminogen = details: cited from earlier work
human fibrinogen = experiment: Fibrinolysis of human fibrinogen clot (not shown); format: biochemical; details: human fibrinogen instead of bovine
Method: as §2

IgG = experiment: Binding of suPAR to IgG with rabbit serum; details: rabbit serum instead of human serum, data not shown
Method: as §3

[7] = system: 125I radiolabeled fibrinogen clots; experiment: Lysis of 125I radiolabeled fibrinogen clot, activator added directly to the clot, solubilized radioactivity; format: biochemical, human; details: 2 hrs
Method: as §1, with “The plates were incubated at 37° C. in an incubator for the required time (about 2 hours, see legends to the Figures). Aliquots of 25 μl were removed at the specific time point for counting of the solubilized label in a gamma counter.” left out

[8] = plasma derived clot covered by serum, FIG. 8

## ATF: amino-terminal fragment of urokinase; blocks interaction of scuPA with suPAR [reference compound]
Human plasma clot; plasma clot, FIG. 3
  effect of ATF on the stimulatory effect of suPAR on scuPA-mediated fibrinolysis: almost complete inhibition
[1]; 250 nM ATF, plasma clot covered with serum
  effect of ATF on scuPA/suPAR mediated fibrinolysis: significantly inhibited
[2]; bovine fibrinogen clot in serum
  effect of ATF on the stimulatory effect of suPAR: can be abolished

## plasminogen: radiolabeled plasminogen used as irrelevant protein control in the protein G precipitation [reference compound]
Human IgG
  precipitation by protein G from native plasma: not precipitated

## scuPA/suPAR complex: complex comprising single chain urokinase type plasminogen activator (scuPA) and soluble urokinase plasminogen activator receptor (suPAR)
Human plasma clot; human plasma clot, FIG. 2(A) lane (c), upper and lower panels, listed as scuPA and suPAR
  size of the lytic area: 0.94 cm^2 and 0.90 cm^2
[3]; purified bovine fibrinogen clot, FIG. 1(A), two wells each, listed as scuPA and suPAR
  lytic area: 1.19 cm^2 and 1.05 cm^2
[4]
  fibrinolytic activity in the absence of plasma-derived protein(s): little fibrinolytic activity
  scuPA/suPAR-mediated fibrinolytic activity in the presence of plasma-derived protein(s): significantly increased
[1]; FIG. 8
  change of activity when a plasma clot is used instead of a fibrinogen clot: increase
[1]; plasma clot
  effect of PBS instead of serum on the surface of the clot on fibrinolytic activity: not affected
[1]; plasma clot covered with serum, 25 nM activator
  time to half maximal fibrinolysis: 54 min
[1]; plasma clot covered with serum, 50% decrease of the concentration of the complex, data not shown
  time to half maximal fibrinolysis: 102 min
[1]; plasma clot covered with serum, doubling the concentration of the complex, data not shown
  time needed for half maximal fibrinolysis: 33 min
[1]; [8]
  activity on clot formed by clotting of plasma compared with tcuPA: greater than that of tcuPA
[5]
  scuPA/suPAR mediated fibrinolysis of clot from IgG-depleted plasma: markedly retarded
[2]; purified bovine fibrinogen added to serum
  efficiency of clot cleavage compared with scuPA alone: greater efficiency than by scuPA alone
[6]; clot formed by purified fibrin covered with serum or PBS, FIG. 7
  effect of serum covering the clot on fibrinolysis: stimulated
[6]; purified fibrin clot covered with serum
  fibrinolytic activity relative to that obtained on a plasma-derived clot: about 60%
PAI-1
  mechanism of PAI-1 inhibition: competitive and reversible
  susceptibility of activity to PAI-1: relatively resistant

## suPAR: soluble urokinase plasminogen activator receptor
plasminogen; plasmin substrate Spect PL
  effect of suPAR on scuPA activity: stimulated
plasminogen; synthetic plasmin substrate S-2251
  effect of suPAR on scuPA-mediated plasminogen activation: inhibit
Human fibrinogen
  inhibition of scuPA activity by suPAR: also observed
Human plasma clot; plasma clots, FIG. 2
  enhancement of scuPA-mediated fibrinolysis by addition of suPAR: up to 14 fold
Human IgG
  precipitation by protein G from native plasma: immunoprecipitates
Human IgG; FIG. 12
  precipitation with purified human IgG instead of plasma: the same results were obtained
Human IgG; IgG-depleted plasma versus native plasma
  precipitation of suPAR with IgG-depleted plasma: less than 25%
[3]; unlabeled bovine fibrinogen clot, equimolar suPAR
  inhibition of scuPA activity in the presence of suPAR: about 40%
[1]; plasma clot, FIG. 6
  effect of suPAR alone on fibrinolysis: depends on the presence of scuPA
[1]; [8]
  effect of addition of suPAR to tcuPA: small stimulatory effect
IgG
  interaction between IgG and suPAR: no interaction
[7]
  inhibition of scuPA activity in the presence of suPAR: ~50%
